Assays:
[1] = target: human IgE / soluble FcεRI α (Fc-FcεRIα fusion protein); assay: Protein-based IgE-FcεRI binding assay (ELISA); details: for % Inhibition of IgE/FcεRI binding: 10 μg/ml
Experimental: A protein-based in vitro assay was developed to screen for compounds which block the interaction between IgE and FcεRI. This assay used human IgE and soluble FcεRI α proteins which were prepared as outlined below. As will be described more below, the assay was performed in the format of an Enzyme-linked ImmunoSorbent Assay (ELISA) as follows. ELISA plates were prepared by coating 96-well plates with soluble FcεRI α protein. In the binding step, biotinylated IgE was captured by the FcεRI α in the wells. In the detection step, bound biotinylated IgE was quantitated by the addition of avidin-horseradish peroxidase and a chromogenic substrate. For the screening of antagonists, the IgE and FcεRI binding assay was performed in the presence of various testing compounds. Compounds that inhibit the interaction between IgE and FcεRI α could be readily detected. This assay was then applied to screen tens of thousand of compounds from a diversified chemical library.
To provide IgE for the ELISA, a recombinant IgE DNA construct was built by ligating a mouse heavy chain variable region, Vh, gene fragment to a human IgE heavy chain, Cε.
The growth medium collected from the above transfected cell culture was concentrated 30-50 times by membrane filtration (Filtron, Northboro, Mass.) and passed through a column of NIP (Genosys Biotechnologies Inc.)-bovine serum albumin (BSA) sepharose. The bound IgE was subsequently eluted from NIP-BSA sepharose using 5 M MgCl2. The eluate was then dialyzed in phosphate buffered saline (PBS). The integrity of the purified IgE was analyzed by SDS-polyacrylamide gel electrophoresis.
To provide soluble FcεRI α protein for ELISA, a DNA construct was made to produce soluble FcεRI α as a protein fused to the Fc region of the human immunoglobulin G heavy chain. The protein product of the construct will he termed Fc-FcεRIα.
The culture media of the cells producing Fc-FcεRI α fusion protein was collected and passed through a Protein A Sepharose column (Repligen, Cambridge, Mass.). The bound fusion protein was eluted from the Protein A Sepharose in 100 mM sodium citrate buffer (pH 4.0) and immediately neutralized with 0.1 volume of 1M Tris-hydrochloride, pH 8. The integrity of the purified protein was analyzed by SDS-polyacrylamide gel electrophoresis.
Fc-FcεRIα was diluted to 0.4 μg/ml in PBS and was used to coat 96-well plates. One hundred microliters of the FcεRIα fusion protein was added to wells of the 96-well plates, and the plate was incubated at 4° C. for 20 hr and washed twice with PBS/T (PBS containing 0.05% Tween-20). The non-specific binding sites in each of the wells were blocked with 200 μl of blocking buffer (PBS containing 1% of BSA and 1% of goat serum) at 37° C. for 2 hr. The plates were then washed 4 times with PBS/T and stored frozen at -20° C. The plates were thawed at room temperature just before use.
IgE was biotinylated as follows. Ten microliters of a 40 mg/ml sulfosuccimidyl 6-(biotinamido)-hexanolate (Pierce, Rockford, Ill.) in dimethylsulphoxide was added to 1 ml of 1 mg/ml IgE in sodium bicarbonate buffer, pH 8.0. After a 4 hr incubation at room temperature, the biotinylation was terminated by the addition of 25 μl of 2M Tris hydrochloride, pH 8 and the resulting biotinylated IgE was diayzed against PBS.
One hundred microliter of this solution was added to wells of a 96-well plate which had been previously coated with Fc-FcεRIα. […] After an additional one hour incubation at room temperature,the plate was again washed four times with PBS/T. The reaction with Avidin-HRP was developed by the addition of 100 μl of K-blue (Elisa Technologies, Lexington, Ky.) to each well.

IgE/FcεRI [2] = assay: Systemic PCA model in rats; assay type: in vivo, Sprague Dawley rats
Experimental: The compounds that have activity in the in situ PCA model were tested in the systemic PCA model. This model measures usefulness of a tetracyclic compound for blocking PCA in rats when the tetracyclic compound is administered systemically and the rats were sensitized with IgE at the skin. In this example, compound I was administrate first into the rats by intravenous (I.V.) injection, and immediately thereafter 0.03 μg/ml of anti-dinitrophenyl/IgE was injected into the skin of the shaved back of Sprague Dawley rats. After a sensitization period of 1 hr, the sensitized rats were challenged with an intravenous injection of 1 mg/ml of dinitrophenyl human albumin in 1% Evan's blue dye. Thirty minutes later, the rats were killed and skinned. As a positive control, PBS, lacking a tetracyclic compound, was administered by I.V. injection into Sprague Dawley rats, and the rats were treated in the same manner as the test rats. Percent inhibition of PCA obtained in this model is calculated by determining reduction of blue dye extracted from the tetracyclic compound treated rats compared to the positive control rats.

IgE/FcεRI [3] = assay: in situ rat passive cutaneous anaphylaxis (PCA) model; assay type: in vivo, Sprague Dawley rats; details: for Percent inhibition of PCA reaction: injected into skin with 0.03 μg/ml IgE; for IC50, inhibition of anaphylaxis in the rat PCA model: in situ rat PCA model
Source text: The tetracyclic compounds that antagonized the IgE and FcεRIα interaction identified in the protein-based assay were further evaluated in the rat PCA model (Haak-Frendscho, et al., J. Immunol., 151:351-358, 1993). […] Mouse anti-dinitrophenyl IgE (Sigma ImmunoChemicals, St. Louis, Mo.) is a bifunctional antibody which binds to dinitrophenyl as well as FcεRI. Exposure of anti-dinitrophenyl-IgE to dinitrophenyl-albumin causes aggregation of the antibody and induces the IgE mediated immune response. […] Fifty microliters of these solutions were injected into the skin of the shaved back of Sprague Dawley rats (Taconic, Germantown, N.Y.). As a positive control, the same amount of anti-dinitrophenyl-IgE in the absence of a tetracyclic compound was injected into the skin of the same rat at a different site. After a period of two hours the sensitized rats were challenged with an intravenous injection of 1 mg/ml of dinitrophenyl-human albumin (Sigma ImmunoChemicals, St. Louis, Mo.) in 1% Evan's blue dye. Thirty minute later, the rats were killed and skinned. Percent inhibition was calculated by the reduction of blue dye at the tetracyclic compound treated injection sites versus the positive control sites.

[4] = target: T1, human FcεRI transfected rat basophil leukemia cell line, SX38 (Homo sapiens, UniProt P01854+P12319); assay: Cell-based IgE-FcεRI binding assay; details: for IC50: read-out: IC50, inhibition of IgE-FcεRI binding (converted)
T1 construct: biotinylated recombinant IgE (mouse VH, human Cε, J558L)
Experimental: About 1×10^5 cells in 50 μl of medium were seeded in the wells of 96-well flat bottom plates. […] Forty microliters of this solution was applied to each well and incubated at room temperature for two hours. The plates were washed three times with PBS, and 40 μl of avidin-horseradish peroxidase, at 1 μg/ml in PBS, was added to each well. After an additional hour of incubation at room temperature, the plate was again washed three times with PBS. The subsequent steps for the measurement of the bound IgE were performed as described in the protein-based IgE-FcεRI binding assay.

[5] = Pharmacokinetic studies in rats; assay type: in vivo; details: blood, iv, rat, 10 mg/kg I.V.
Experimental: The pharmacokinetic (PK) profile of the compounds following systemic I.V. injection was measured. Compound 1 was formulated in PBS and given to a rat at 10 mg/kg. Blood was drawn from the rat at different time points after injection. The concentrations of compound 1 in the blood were measured by HPLC after separation from serum.

[6] = Toxicity studies in mice, single I.V. injection; assay type: in vivo
Source text: The potential toxic side effects following systemic administration was investigated by administering compound 1 in PBS to mice in single I.V. injection.

[7] = test system: rat basophil leukemia cells (RBL cells); assay: Hexosaminidase release assay; assay type: cell-based; details: read-out: % Inhibition of IgE mediated hexosaminidase release
Experimental: Tetracyclic Compounds that antagonized the IgE and FcεRIα interaction identified in the protein-based assay and cell-based assay were further evaluated in a screening assay using rat basophil leukemia cells (RBL cells). […] About 2×10^5 RBL cells were seeded per well in a 96 well plate and were incubated overnight at 37° C. A mixture of biotinylated mouse IgE (100 μl of 0.125 μg/ml) and a tetracyclic compound, e.g. compound 2, in medium was added lo each well and was incubated for 1 hour at 37° C. The cells were then washed twice with triggering buffer (119 mM NaCl, 5 mM KCl, 25 mM disodium PIPES, 5.6 mM glucose, 1 mM CaCl2, 0.1% BSA), and pre-incubated in triggering buffer for 10 min. at 37° C. One hundred microliters of 0.02 μg/ml streptavidin in triggering buffer was then added and the cells were incubated for an additional 30 min. at 37° C. The 96 well plate is then centrifuged at 4° C. to pellet all cells, and 80 μl of the supernatant is harvested on ice and transferred to another 96 well plate. As a positive control, two aliquots of about 2×10^5 RBL cells were lysed with 100 μl of 0.2% Triton in triggering buffer, and the supernatant was harvested after centrifugation to pellet all cell debris. Addition of streptavidin to RBL cells, which have been incubated with biotinylated IgE will trigger the release of IgE mediated allergy mediators, such as histamine. Antagonization of IgE/FcεRI binding by a tetracyclic compound results in the release of a reduced level of allergy mediators. The release of allergy mediators was quantitated by assaying for the presence of the enzyme hexosaminidase in the supernatant The concentration of hexosaminidase was determined by hydrolysis of its substrate, p-NAG (p-nitrophenyl-N-acetate-[…], Sigma Chemical Co.) in citrate buffer (pH 4.5) at 37° C. for 1 hr.

T1 sequence (P12319 26-257): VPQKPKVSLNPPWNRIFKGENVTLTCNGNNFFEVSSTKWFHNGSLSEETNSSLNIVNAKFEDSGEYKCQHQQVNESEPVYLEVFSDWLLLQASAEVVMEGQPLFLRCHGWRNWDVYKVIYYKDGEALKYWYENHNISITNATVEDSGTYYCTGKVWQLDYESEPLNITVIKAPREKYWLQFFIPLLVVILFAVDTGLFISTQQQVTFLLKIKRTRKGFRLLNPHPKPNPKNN
T1 sequence (P01854 whole entry): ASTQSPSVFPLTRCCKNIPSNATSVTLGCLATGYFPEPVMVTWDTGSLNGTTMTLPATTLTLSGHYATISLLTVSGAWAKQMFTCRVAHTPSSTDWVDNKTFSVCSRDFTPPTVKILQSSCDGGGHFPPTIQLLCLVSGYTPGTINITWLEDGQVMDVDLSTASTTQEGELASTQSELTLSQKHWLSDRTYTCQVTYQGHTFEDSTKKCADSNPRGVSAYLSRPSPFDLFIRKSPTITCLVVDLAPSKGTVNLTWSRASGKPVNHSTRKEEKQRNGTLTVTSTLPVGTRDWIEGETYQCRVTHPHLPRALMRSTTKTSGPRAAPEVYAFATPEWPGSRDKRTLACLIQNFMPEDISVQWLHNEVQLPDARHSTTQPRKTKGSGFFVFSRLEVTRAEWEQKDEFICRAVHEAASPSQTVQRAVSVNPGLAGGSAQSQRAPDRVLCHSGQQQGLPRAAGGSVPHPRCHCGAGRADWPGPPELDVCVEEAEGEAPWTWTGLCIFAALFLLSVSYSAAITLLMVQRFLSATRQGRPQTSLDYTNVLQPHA
T1 sequence (Q01362 whole entry partner): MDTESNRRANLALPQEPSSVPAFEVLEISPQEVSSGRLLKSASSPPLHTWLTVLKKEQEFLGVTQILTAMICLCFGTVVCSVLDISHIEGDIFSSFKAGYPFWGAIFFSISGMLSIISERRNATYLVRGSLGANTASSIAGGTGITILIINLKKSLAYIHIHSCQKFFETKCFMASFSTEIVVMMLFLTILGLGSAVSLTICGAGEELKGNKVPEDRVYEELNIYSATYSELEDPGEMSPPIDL
T1 sequence (P30273 19-86 partner): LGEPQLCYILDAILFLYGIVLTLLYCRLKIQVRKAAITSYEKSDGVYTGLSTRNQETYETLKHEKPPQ

O=C(O)c1c(Cl)c(Cl)c(Cl)c(Cl)c1-c1c2cc(I)c(=O)c(I)c-2oc2c(I)c(O)c(I)cc12 (single isomer, unassigned) [Compound 1]
IC50, inhibition of IgE/FcεRI binding [1]: 0.34 µg/mL
% Inhibition of IgE/FcεRI binding [1]: 98%
% Inhibition of PCA (IgE/FcεRI [2]; 47 mg/kg I.V.): 2.0%
% Inhibition of PCA (IgE/FcεRI [2]; 70 mg/kg I.V.): 64.0%
% Inhibition of PCA (IgE/FcεRI [2]; 94 mg/kg I.V.): 104.0%
% Inhibition of PCA (IgE/FcεRI [2]; 114 mg/kg I.V.): 102.0%
Percent inhibition of PCA reaction (IgE/FcεRI [3]; 0.25 μg/ml): 5%
Percent inhibition of PCA reaction (IgE/FcεRI [3]; 0.5 μg/ml): 66%
Percent inhibition of PCA reaction (IgE/FcεRI [3]; 1 μg/ml): 100%
IC50, inhibition of anaphylaxis in the rat PCA model (IgE/FcεRI [3]): 0.46 µg/mL
inhibition at 10 µg/mL ([4]; 10 μg/ml): 46%
IC50 [4]: 12 µM
concentration at 0 h ([5]; 0 minute): 83000 ng/mL
concentration at 0.25 h ([5]; 15 minute): 2510 ng/mL
concentration at 0.5 h ([5]; 30 minute): 902 ng/mL
concentration at 1 h ([5]; 60 minute): 720 ng/mL
concentration at 2 h ([5]; 120 minute): 625 ng/mL
concentration at 4 h ([5]; 240 minute): 512 ng/mL
No. of Death ([6]; 400 mg/kg I.V., single injection, 3 mice): 0
LD50 ([6]; mouse, in vivo, iv, mice, single I.V. injection in PBS): > 400 mg/kg

O=C(O)c1c(Cl)c(Cl)c(Cl)c(Cl)c1-c1c2cc(I)c(=O)c(I)c-2oc2c(I)c(O)c(I)cc12 (single isomer, unassigned) [Compound 2]
IC50, inhibition of IgE/FcεRI binding [1]: 0.38 µg/mL
% Inhibition of IgE/FcεRI binding [1]: 100%
inhibition at 0.1 µg/mL ([7]; 0.1 μg/ml): 11%
inhibition at 0.62 µg/mL ([7]; 0.62 μg/ml): 19%
inhibition at 1.25 µg/mL ([7]; 1.25 μg/ml): 75%
inhibition at 2.5 µg/mL ([7]; 2.5 μg/ml): 96%
inhibition at 5 µg/mL ([7]; 5 μg/ml): 94%
IC50, inhibition of anaphylaxis in the rat PCA model (IgE/FcεRI [3]): 1.10 µg/mL
% Inhibition of IgE-FcεRI binding ([4]; 10 μg/ml): 62%
IC50 [4]: 5.65 µM

CCOC(=O)c1c(Cl)c(Cl)c(Cl)c(Cl)c1-c1c2cc(Br)c(=O)c(Br)c-2oc2c(Br)c(O)c(Br)cc12 [Compound 3]
IC50, inhibition of IgE/FcεRI binding [1]: 4.30 µg/mL
% Inhibition of IgE/FcεRI binding [1]: 90%

CCOC(=O)c1ccccc1-c1c2cc(Br)c(=O)c(Br)c-2oc2c(Br)c(O)c(Br)cc12 [Compound 4]
IC50, inhibition of IgE/FcεRI binding [1]: 0.82 µg/mL
% Inhibition of IgE/FcεRI binding [1]: 98%
IC50, inhibition of anaphylaxis in the rat PCA model (IgE/FcεRI [3]): 2.90 µg/mL
inhibition at 10 µg/mL ([4]; 10 μg/ml): 93%
IC50 [4]: 5.33 µM

O=C(O)c1c(Cl)ccc(Cl)c1-c1c2cc(I)c(=O)c(I)c-2oc2c(I)c(O)c(I)cc12 [Compound 5]
IC50, inhibition of IgE/FcεRI binding [1]: 0.56 µg/mL
% Inhibition of IgE/FcεRI binding [1]: 99%

O=C(O)c1c(Cl)c(Cl)c(Cl)c(Cl)c1-c1c2ccc(=O)c(O)c-2oc2c(O)c(O)ccc12 [Compound 6]
IC50, inhibition of IgE/FcεRI binding [1]: 0.63 µg/mL
% Inhibition of IgE/FcεRI binding [1]: 83%

COC(=O)c1ccccc1-c1c2cc(Br)c(=O)c(Br)c-2oc2c(Br)c(O)c(Br)cc12 [Compound 7]
IC50, inhibition of IgE/FcεRI binding [1]: 1.46 µg/mL
% Inhibition of IgE/FcεRI binding [1]: 87%
inhibition at 10 µg/mL ([4]; 10 μg/ml): 84%
IC50 [4]: 6.65 µM

O=c1c(Br)cc2c(-c3ccccc3S(=O)(=O)O)c3cc(Br)c(O)c(O)c3oc-2c1O [Compound 8]
IC50, inhibition of IgE/FcεRI binding [1]: 0.65 µg/mL
% Inhibition of IgE/FcεRI binding [1]: 87%

From US5965605A, “Inhibition of the binding human IgE to its receptor by tetracyclic compounds for the alleviation of IgE-mediated immune response” (Heska Corporation, priority 1997, dated 1999)
